Reference: ChEMBL document CHEMBL1201862, “PubChem BioAssay data set” (2004)
Active and inactive are the calls of the source.

Experiments:
[1] = intracellular Trypanosoma cruzi inhibitors in host cells – cell-based, plate reader, cherry-pick samples, set 3, dose response (AID 651818); type: functional;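 note: compounds incubated with infected cells for about four days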
[2] = Luminescence-based cell-based high throughput dose response assay to identify activators of the DAF-12 from the parasite S. stercoralis (ssDAF-12).; type: functional
[3] = NIH-3T3 fibroblast cytotoxicity, dose response, cytotoxicity control, cell-based, fluorescence, Alamar Blue, secondary assay (AID 2327); type: functional;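 note: NIH-3T3 mouse fibroblasts cultured with fluconazole at 8 µg/mL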
[4] = growth suppression of beta-catenin-knockout colon cells, dose response, cell-based, HCT116, human colon tumor (AID 1045); type: functional;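 note: HCT116 colon tumor cells with beta catenin knocked out; cells exposed to compound for 60 hours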
[5] = C. albicans growth with fluconazole, confirmation, fluorescence, retest (AID 2467); type: functional, cell-based
[6] = cytotoxicity toward NIH3T3 fibroblasts, dose response, counter-screen, cell-based, ATP luminescence, mouse fibroblasts (AID 2010); type: functional;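 note: cells exposed to compound for about 90 hours before reading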
[7] = inhibitors of intracellular T. cruzi replication, confirmation, NIH3T3 host cells, beta-gal luminescence (AID 2044); type: functional, cell-based;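 note: intracellular parasites grown in NIH/3T3 mouse fibroblasts as host cells; luminescent beta-galactosidase reporter signal from transgenic T. cruzi replicating inside host cells; inhibitors lower the luminescence signal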
[8] = growth suppression of PTEN-null colon cells, dose response, cell-based, HCT116 PTEN knockout (AID 1047); type: functional;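 note: HCT116 colon tumor cells with PTEN knocked out; cells exposed to compound for 60 hours before readout; potency for loss of cell viability measured by luminescence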
Prothrombin = Prothrombin (Homo sapiens, UniProt P00734); assay: Thrombin 1536 HTS Dose Response Confirmation. [Related pubchem assays: 1046 (Thrombin 1536 HTS; hits were confirmed in this assay)]; type: functional
[9] = inhibitors of HIV Env-driven cell fusion, dose response, cherry-pick (AID 652057); type: functional, cell-based
[10] = ZM109 Env clade C HIV-1 fusion inhibitors, dose response, HeLa effector, CEM target cells, luciferase, cherry-pick (AID 652058); type: functional, cell-based
[11] = inhibitors of clade B AD8 Env fusion, dose response, cell-based, cherry-pick (AID 652062); type: functional;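 note: luciferase signal from cell-cell fusion driven by HIV-1 clade B AD8 Env; potency is for inhibitors of fusion seen as a drop in luminescence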
[12] = molecular target: Induced myeloid leukemia cell differentiation protein Mcl-1 (Homo sapiens, UniProt Q07820); type: functional
[13] = A Cell Based Secondary Assay To Explore Cytotoxicity of Compounds that Sensitize Mycobacterium Tuberculosis to Beta-Lactam Antibiotics.; type: functional
[14] = molecular target: Glucose-6-phosphate 1-dehydrogenase (Homo sapiens, UniProt P11413); assay: human G6PD enzyme inhibitors, dose response, selectivity assay for P. falciparum G6PD inhibitor project, biochemical, fluorescence (AID 504792); type: functional
[15] = Shn3 3'UTR reporter inhibitors, dose response, cell-based, Clone20 osteoblasts, firefly luciferase, cherry-picked (AID 624132); type: functional;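 note: firefly luciferase luminescence from reporter carrying the Shn3 3'UTR in osteoblasts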
HEK293 [16] = assay: cells; type: functional, cell-based; details: Homo sapiens
HEK293 [17] = assay: cells; type: functional, cell-based; details: Homo sapiens; remark: listed apart in the source
HEK293 [18] = assay: NOD2 signaling inhibitors in MDP-stimulated cells, cell-based, uHTS, luminescence (AID 2001); type: functional; details: Homo sapiens
[19] = control 3'UTR Renilla luciferase suppression, dose response, counter-screen for Shn3 inhibitor project, cell-based, Clone20-Shn3RL, cherry-picked (AID 624133); type: functional
HEK293 [20] = assay: cells; type: functional, cell-based; details: Homo sapiens; remark: listed apart in the source
[21] = molecular target: Nucleotide-binding oligomerization domain-containing protein 2 (Homo sapiens, UniProt Q9HC29); assay: NOD2 signaling inhibitors, cell-based, luminescence, uHTS, HEK293 (AID 1566); type: functional
HEK293 [22] = assay: NOD1 signaling inhibitors, primary screen, cell-based, luminescence, uHTS (AID 1578); type: functional; details: Homo sapiens
Paired box protein Pax-8 = Paired box protein Pax-8 (Homo sapiens, UniProt Q06710); assay: inhibitors of PAX8-driven TPO luciferase reporter, dose response, RMG-I cells, cherry-pick (AID 687027); type: functional, cell-based;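 note: luciferase reporter driven by Pax8 target thyroperoxidase promoter measured by SteadyGlo luminescence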
[23] = non-specific cell cytotoxicity, dose response, cytotoxicity control for PAX8 inhibitor project, plate reader, dry powder samples (AID 743021); type: functional, cell-based
Vero = assay: cells; type: functional; details: Chlorocebus sabaeus
[24] = cytotoxicity in HEK-293T cells, dose response, cytotoxicity control for BCR NF-kB inhibitor project, luminescence, B-cell screen hits (AID 489021); type: functional, cell-based;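 note: HEK-293T cells carrying an NF-kB luciferase reporter; cells exposed to compound for about 14 hours before viability readout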
Bcl-2-related protein A1 = molecular target: T1, Bcl-2-related protein A1 (Mus musculus, UniProt Q07440); type: functional;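 note: confirmatory dose–response counterscreen on Bfl-1, used to check hits from a UBC13 polyubiquitin inhibitor campaign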
T1 sequence (Q07440 whole entry): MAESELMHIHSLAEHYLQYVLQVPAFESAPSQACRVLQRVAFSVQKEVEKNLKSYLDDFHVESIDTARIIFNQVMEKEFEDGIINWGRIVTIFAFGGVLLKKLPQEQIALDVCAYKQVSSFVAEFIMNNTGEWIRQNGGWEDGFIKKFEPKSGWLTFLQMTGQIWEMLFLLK

cells [25] = type: functional, cell-based
[26] = cytotoxicity in HEK-293T cells, dose response, cytotoxicity control for TCR NF-kB inhibitor project, luminescence, T-cell screen hits (AID 489026); type: functional, cell-based;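 note: cells exposed to compound about 14 hours before the viability readout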
HEK293 [27] = assay: inhibitors of LMP1-driven NF-kB reporter, dose response, cell-based, HEK293, luciferase, cherry-pick (AID 588343); type: functional; details: Homo sapiens
[28] = molecular target: T2, Microphthalmia-associated transcription factor (Homo sapiens, UniProt O75030); assay: TRPM1 promoter luciferase signal decrease, dose response, MITF inhibitor project, cell-based, SK-MEL-5, cherry-picked, set 3 (AID 493073); type: functional
T2 sequence (O75030 whole entry): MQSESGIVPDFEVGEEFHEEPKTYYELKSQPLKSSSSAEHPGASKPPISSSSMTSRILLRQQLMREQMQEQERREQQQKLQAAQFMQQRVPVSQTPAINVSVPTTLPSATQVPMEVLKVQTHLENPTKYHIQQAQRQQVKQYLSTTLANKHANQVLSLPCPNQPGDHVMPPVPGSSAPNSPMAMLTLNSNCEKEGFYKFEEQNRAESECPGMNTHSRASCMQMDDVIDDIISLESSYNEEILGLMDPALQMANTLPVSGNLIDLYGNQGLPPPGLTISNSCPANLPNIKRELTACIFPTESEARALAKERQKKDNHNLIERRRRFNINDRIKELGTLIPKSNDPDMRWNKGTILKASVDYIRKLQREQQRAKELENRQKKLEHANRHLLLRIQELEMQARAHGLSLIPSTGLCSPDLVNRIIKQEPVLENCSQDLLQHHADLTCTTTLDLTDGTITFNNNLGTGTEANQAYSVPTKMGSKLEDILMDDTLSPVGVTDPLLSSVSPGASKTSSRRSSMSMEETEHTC

cells [29] = type: functional, cell-based; remark: listed apart in the source
[30] = microbe, parasite or virus in culture; type: functional; details: Mycobacterium tuberculosis
[31] = miR-122 activators in hepatoma reporter cells, dose response, cell-based, Huh7 psiCHECK-miR122, Renilla luciferase, cherry-picked (AID 651956); type: functional;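 note: huh7 hepatoma cells stably carrying a psiCHECK-2 miR-122 sensor plasmid; renilla luciferase signal reporting endogenous miR-122 activity after 48 h compound exposure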
[32] = HEK293T cytotoxicity, dose response, cytotoxicity control for miR-122 modulator project, cell-based, inhibitor set, cherry-pick, set 2 (AID 720697); type: functional
Cytochrome P450 2C19 = Cytochrome P450 2C19 (Homo sapiens, UniProt P33261); assay: Cytochrome panel assay with activity outcomes. Panel member name: p450-cyp2c19 Compounds with AC50 equal or less than 10 uM are considered active; type: functional; details: read-out: AC50
Sequence of Cytochrome P450 2C19 (P33261 whole entry): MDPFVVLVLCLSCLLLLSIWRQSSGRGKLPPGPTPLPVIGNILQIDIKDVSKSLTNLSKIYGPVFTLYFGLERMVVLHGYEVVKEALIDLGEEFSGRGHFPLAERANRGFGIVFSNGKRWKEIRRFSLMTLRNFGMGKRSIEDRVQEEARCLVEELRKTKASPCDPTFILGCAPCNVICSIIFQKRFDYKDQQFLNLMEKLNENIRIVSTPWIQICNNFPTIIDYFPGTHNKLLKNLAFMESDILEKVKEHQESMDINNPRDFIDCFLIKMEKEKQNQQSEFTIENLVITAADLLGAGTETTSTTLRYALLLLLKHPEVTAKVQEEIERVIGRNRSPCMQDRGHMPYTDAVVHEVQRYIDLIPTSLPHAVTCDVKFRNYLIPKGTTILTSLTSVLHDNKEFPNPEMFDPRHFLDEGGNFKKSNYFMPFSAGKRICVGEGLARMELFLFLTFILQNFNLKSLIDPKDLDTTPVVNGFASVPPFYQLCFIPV

Sequence of Nucleotide-binding oligomerization domain-containing protein 2 (Q9HC29 whole entry, the tested form may be a part): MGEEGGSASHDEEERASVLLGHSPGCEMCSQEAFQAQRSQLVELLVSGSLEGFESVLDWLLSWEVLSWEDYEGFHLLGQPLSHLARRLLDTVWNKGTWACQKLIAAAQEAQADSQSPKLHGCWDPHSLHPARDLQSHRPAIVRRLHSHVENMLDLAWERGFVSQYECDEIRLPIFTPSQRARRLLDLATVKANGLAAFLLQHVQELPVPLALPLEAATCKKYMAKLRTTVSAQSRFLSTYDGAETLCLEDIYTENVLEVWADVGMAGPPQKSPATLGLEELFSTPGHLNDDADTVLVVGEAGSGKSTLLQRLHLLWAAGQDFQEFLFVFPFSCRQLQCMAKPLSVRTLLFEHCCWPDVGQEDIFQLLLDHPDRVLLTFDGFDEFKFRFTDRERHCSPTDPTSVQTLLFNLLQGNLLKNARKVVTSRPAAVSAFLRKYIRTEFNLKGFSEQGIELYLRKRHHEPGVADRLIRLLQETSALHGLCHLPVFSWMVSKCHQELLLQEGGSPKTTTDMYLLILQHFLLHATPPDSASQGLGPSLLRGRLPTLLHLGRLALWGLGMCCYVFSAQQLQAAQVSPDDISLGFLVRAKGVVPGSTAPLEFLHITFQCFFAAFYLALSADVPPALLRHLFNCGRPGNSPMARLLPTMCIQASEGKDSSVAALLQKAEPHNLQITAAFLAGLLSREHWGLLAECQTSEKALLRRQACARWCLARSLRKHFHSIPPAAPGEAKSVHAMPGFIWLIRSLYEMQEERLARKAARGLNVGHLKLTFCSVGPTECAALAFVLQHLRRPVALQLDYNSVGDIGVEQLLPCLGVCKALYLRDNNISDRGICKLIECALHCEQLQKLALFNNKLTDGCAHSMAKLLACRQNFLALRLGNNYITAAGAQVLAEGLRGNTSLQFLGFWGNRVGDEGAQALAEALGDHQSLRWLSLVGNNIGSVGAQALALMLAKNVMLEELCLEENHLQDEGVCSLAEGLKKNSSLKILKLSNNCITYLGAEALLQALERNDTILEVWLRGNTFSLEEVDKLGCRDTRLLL
Sequence of Induced myeloid leukemia cell differentiation protein Mcl-1 (Q07820 whole entry): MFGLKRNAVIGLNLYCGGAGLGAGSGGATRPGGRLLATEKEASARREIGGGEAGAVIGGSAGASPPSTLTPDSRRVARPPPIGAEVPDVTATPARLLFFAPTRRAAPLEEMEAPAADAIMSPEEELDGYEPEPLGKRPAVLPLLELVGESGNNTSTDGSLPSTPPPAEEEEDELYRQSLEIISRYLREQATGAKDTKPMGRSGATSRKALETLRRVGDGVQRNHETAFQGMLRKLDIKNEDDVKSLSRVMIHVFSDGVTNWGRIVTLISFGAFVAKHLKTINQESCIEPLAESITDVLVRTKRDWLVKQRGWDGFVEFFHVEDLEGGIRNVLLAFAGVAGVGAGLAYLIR
Sequence of Glucose-6-phosphate 1-dehydrogenase (P11413 whole entry): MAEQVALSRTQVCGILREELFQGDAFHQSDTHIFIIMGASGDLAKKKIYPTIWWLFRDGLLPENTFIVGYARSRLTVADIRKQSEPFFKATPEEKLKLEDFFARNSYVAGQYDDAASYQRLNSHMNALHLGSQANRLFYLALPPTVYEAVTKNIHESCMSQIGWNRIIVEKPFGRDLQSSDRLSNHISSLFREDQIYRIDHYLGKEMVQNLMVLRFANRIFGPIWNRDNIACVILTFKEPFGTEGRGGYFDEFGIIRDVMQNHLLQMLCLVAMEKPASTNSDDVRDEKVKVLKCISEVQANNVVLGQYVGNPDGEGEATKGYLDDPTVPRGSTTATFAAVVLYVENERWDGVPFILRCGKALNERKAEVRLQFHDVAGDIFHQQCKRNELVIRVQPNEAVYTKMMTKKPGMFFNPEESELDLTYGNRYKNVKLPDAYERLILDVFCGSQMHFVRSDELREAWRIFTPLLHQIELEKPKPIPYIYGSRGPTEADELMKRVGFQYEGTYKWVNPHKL
Sequence of Paired box protein Pax-8 (Q06710 whole entry): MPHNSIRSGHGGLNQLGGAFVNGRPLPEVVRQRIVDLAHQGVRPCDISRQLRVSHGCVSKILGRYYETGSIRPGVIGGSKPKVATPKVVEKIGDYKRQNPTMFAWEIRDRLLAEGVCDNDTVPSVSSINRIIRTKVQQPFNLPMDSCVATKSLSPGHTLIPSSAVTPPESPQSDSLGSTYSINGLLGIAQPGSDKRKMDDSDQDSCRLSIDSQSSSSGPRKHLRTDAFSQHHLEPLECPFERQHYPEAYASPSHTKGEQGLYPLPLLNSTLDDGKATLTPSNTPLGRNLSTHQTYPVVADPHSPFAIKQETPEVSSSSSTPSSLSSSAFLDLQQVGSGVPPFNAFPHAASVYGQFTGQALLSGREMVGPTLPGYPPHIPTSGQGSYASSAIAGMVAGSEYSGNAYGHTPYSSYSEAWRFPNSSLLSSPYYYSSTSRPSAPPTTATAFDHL

C[C@@H]1CN([C@@H](C)CO)C(=O)Cc2cc(NS(=O)(=O)c3cccs3)ccc2O[C@@H]1CN(C)Cc1ccc(C(=O)Nc2ccccc2N)cc1
AC50 [1]: 2.33 µM (active)

CC(=O)Nc1nc(-c2ccc(Cl)cc2)nc(C)c1C(C)=O
IC50 [2]: > 67.6 µM (inactive)

Oc1ccc(CN2CCCCC2)c2cccnc12
EC50 [3]: > 150 µM (inactive) | EC50 [4]: 3 µM (active) | EC50 [5]: > 38 µM (not active) | EC50 [6]: 11.4 µM (active) | EC50 [7]: 1.78 µM (active) | EC50 [8]: 3.45 µM (active)

CSc1nc(-c2ccccc2)nc(N2CCOCC2)c1C(C)=O
IC50 (Prothrombin): > 50 µM (not active)

CC(C)NC(=O)Nc1ccc2c(c1)CC(=O)N([C@H](C)CO)C[C@H](C)[C@H](CN(C)S(=O)(=O)c1cccs1)O2
AC50 [9]: 7.82 µM (active) | AC50 [10]: 4.72 µM (active) | AC50 [11]: 12.8 µM (active)

CC(C)(C)c1ccc(CN2N=Nc3ccccc3S2(=O)=O)cc1
IC50 [12]: 24.1 µM (active)

O=C(CSc1nc2cc(Cl)c[nH]c-2n1)Nc1cccc(F)c1
CC50 [13]: > 40 µM (active)

O=C(CSc1nc2ccccc2[nH]1)NC1CCCc2ccccc21 (stereo unspecified)
IC50 [14]: > 80 µM (inactive)

COc1cc(S(=O)(=O)N2CCOCC2)ccc1NC(=O)COC(=O)COc1ccccc1
IC50 (Prothrombin): 3.63 µM (active)

COC/C=C/C1=CC2=CC(=O)C(C)(OC(=O)c3ccco3)C(=O)C2=CO1 (stereo unspecified)
IC50 [12]: 3.7 µM (active)

C[C@H]1CN([C@@H](C)CO)C(=O)c2cc(NS(=O)(=O)c3ccc(Cl)cc3)ccc2O[C@H]1CN(C)S(=O)(=O)c1ccc(Cl)cc1
AC50 [1]: 4.63 µM (active)

O=C(c1ccc(S(=O)(=O)c2ccc(F)cc2)c([N+](=O)[O-])c1)N1CCCCCC1
AC50 [15]: 2.38 µM (active) | IC50 (HEK293 [16]): 5.7 µM (active) | IC50 (HEK293 [17]): > 20 µM (inactive) | IC50 (HEK293 [18]): 5.8 µM (active) | AC50 [19]: 9.68 µM (active) | IC50 (HEK293 [20]): > 20 µM (inactive) | EC50 [21]: 14.8 µM (active) | EC50 (HEK293 [22]): 4.38 µM (active)

Cc1ccc2c(CC(=O)OCC(=O)Nc3ccc(Cl)cn3)coc2c1
AC50 (Paired box protein Pax-8): 14.2 µM (active) | AC50 [23]: 52.7 µM (active)

COC(=O)c1sccc1NC(=O)CSc1ccccc1NS(=O)(=O)c1cc(Cl)ccc1Cl
IC50 (HEK293 [16]): 8.22 µM (active) | IC50 (HEK293 [17]): > 20 µM (inactive) | IC50 (HEK293 [18]): 5.68 µM (active) | IC50 (HEK293 [20]): > 20 µM (inactive) | EC50 [21]: 6.35 µM (active) | EC50 (HEK293 [22]): 6.42 µM (active)

CCC(C)Oc1ccccc1C1CC(=O)NC2=C1C(=O)CCC2 (stereo unspecified)
EC50 [4]: 12.7 µM (active) | EC50 [8]: 12.5 µM (active)

Cc1cc(S)nc(-c2ccccn2)n1
CC50 [13]: 31.8 µM (active)

CC1CCN(CC(=O)Nc2ccccc2C#N)CC1
IC50 (Prothrombin): > 50 µM (not active)

O=C(N/N=C/c1ccc(-c2cccc(C(F)(F)F)c2)o1)c1ccccc1O
CC50 [13]: 11.5 µM (active)

C[C@H](CO)N1C[C@H](C)[C@H](CN(C)C)Oc2c(NC(=O)Nc3ccc(C(F)(F)F)cc3)cccc2C1=O
AC50 [1]: 3.27 µM (active)

COc1cccc(-n2c(SCC(=O)c3c[nH]c4ccccc34)nc3ccccc3c2=O)c1
CC50 (Vero): > 25 µM (active)

Cc1ccc(CNc2nc3ccccc3n2C)cc1
IC50 [2]: > 67.5 µM (inactive)

COc1cc2c3c(c1)c(/N=N/C(=N)S)c(O)n3C(C)(C)C=C2C
IC50 [24]: > 80 µM (inactive) | IC50 (Bcl-2-related protein A1): > 20 µM (inactive)

COc1cccc(/C=N/Nc2ncnc3c2ncn3Cc2ccccc2)c1O
EC50 (cells [25]): > 350 µM (not active) | IC50 [26]: > 80 µM (inactive) | AC50 (HEK293 [27]): 4.68 µM (active) | AC50 [28]: 4.6 µM (active) | EC50 (cells [29]): 6.75 µM (active)

Cc1ccc(CSc2nccc(-c3c(C)nc4ccccn34)n2)cc1
CC50 [13]: 24.7 µM (active)

Cc1cc(F)ccc1N1CCC(N2CCN(CCC(C)C)C(CCO)C2)CC1 (stereo unspecified)
IC50 (Prothrombin): > 50 µM (not active)

Nc1c2c(nc3ccn(Cc4ccccc4)c(=O)c13)CCC2
CC50 [30]: > 40 µM (active)

C/C=C/c1ccc2c(c1)O[C@H](CN(C)C(=O)c1cnccn1)[C@H](C)CN([C@@H](C)CO)S2(=O)=O
AC50 [31]: 26.6 µM (active) | AC50 [32]: 10.3 µM (active)

COc1ccc(/C=C2\SC(=S)N(CCC(=O)N3CCCCC3)C2=O)cc1
CC50 (Vero): > 25 µM (active)

O=C(O)c1ccc(N/N=C/C=C/c2ccccc2[N+](=O)[O-])cc1
IC50 [2]: > 67.6 µM (inactive)

O=c1oc(-c2cccnc2)nc2ccccc12
IC50 (Prothrombin): 0.966 µM (active)

COC(=O)C[C@@H]1C[C@H]2c3cc(NS(=O)(=O)c4cccc(OC)c4)ccc3O[C@H]2[C@@H](CO)O1
AC50 [10]: 3.74 µM (active) | AC50 [11]: 66.1 µM (active)

CC(CC(=O)Nc1ccc(Cl)c([N+](=O)[O-])c1)c1ccccc1 (stereo unspecified)
CC50 [30]: 30.7 µM (active) | AC50 (Cytochrome P450 2C19): 2.51 µM (inconclusive)

CC1(C)CC(=O)C2=C(C1)N1C(=C(C#N)C2c2ccccc2Cl)N=C(N)c2ccccc21 (stereo unspecified)
EC50 [4]: 22.7 µM (active) | EC50 [8]: 20.4 µM (active)

C[C@@H]1CCCCO[C@@H](CN(C)C(=O)C2CCCCC2)[C@@H](C)CN([C@H](C)CO)C(=O)c2cc(NC(=O)Nc3ccc(C(F)(F)F)cc3)ccc2O1
AC50 [1]: 1.91 µM (active)

O=C(NCCN1CCN(Cc2ccccc2)CC1)c1cc2c(O)nc3ccccc3c2s1
EC50 [4]: 14.3 µM (active) | EC50 [8]: 13 µM (active)
